Reference: patent publication US9708368B2, “Linear peptide antibiotics” (priority 2012, dated 2017)
Values after ≈ are worked out from the molar mass of the structure shown. Read-outs that look alike come from different tables or passages of the source. Square brackets hold non-standard residues; d marks the D form. Peptide text beside a SMILES is read from it. * marks the point of attachment. ξ: configuration not given here. boroAla((+)-pinanediol) = C[C@H](N*)B1O[C@@H]2C[C@@H]3C[C@@H](C3(C)C)[C@]2(C)O1; Biphenylcarbonyl(4'-Bu) = CCCCc1ccc(-c2ccc(C(=O)*)cc2)cc1; X1 = C[C@H](N*)B1OC2C[C@@H]3C[C@@H](C3(C)C)[C@]2(C)O1; Benzoyl(4-(4-Cl-Ph)) = O=C(c1ccc(-c2ccc(Cl)cc2)cc1)*; Benzoyl(4-hexyl) = CCCCCCc1ccc(C(=O)*)cc1; NMeThr(3ξ) = CN[C@H](C(=O)O)C(C)O; Myristoyl = CCCCCCCCCCCCCC(=O)*; NMeE = CN[C@@H](CCC(=O)O)C(=O)O; Thr(3ξ) = CC(O)[C@H](N)C(=O)O; Decanoyl = CCCCCCCCCC(=O)*; boroAla = C[C@H](N*)B(O)O; Dab = NCC[C@H](N)C(=O)O; Dap = NC[C@H](N)C(=O)O; boroGly = OB(O)CN*; βAla = NCCC(=O)O; ξA = CC(N)C(=O)O

Assays:
S. aureus SPase = S. aureus SPase (Staphylococcus aureus, UniProt P0A070); assay: biochemical
Sequence of S. aureus SPase (P0A070 whole entry): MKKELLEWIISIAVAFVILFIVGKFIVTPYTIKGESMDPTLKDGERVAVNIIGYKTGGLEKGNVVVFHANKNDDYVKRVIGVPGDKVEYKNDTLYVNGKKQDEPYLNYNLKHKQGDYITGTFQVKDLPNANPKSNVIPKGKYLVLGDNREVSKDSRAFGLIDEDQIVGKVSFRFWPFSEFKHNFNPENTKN

[1] = system: Escherichia coli MC4100 IMP-4213 in which transcription of the SPase encoding gene is under control of a tetracycline inducible promoter; conditions: Method A; E. coli MC4100 IMP-4213 with decreased SPase expression; 35° C., 22 hours
Method: (§1) In vitro antimicrobial activity of each compound was determined by measuring minimal inhibitor concentrations (MICs) using the broth micro-dilution technique as approved by the Clinical and Laboratory Standards Institute (CLSI). […] Cells were inoculated onto Trypyticase Soy Agar or Luria Agar containing 16 ng/ml of anhydrotetracycline respectively and grown at 35° C. for 20 hours. Inocula suspensions were made by scraping cells into 1 mL of testing media (cation adjusted Mueller Hinton Broth supplemented with 0.002% v/v Tween-80) and diluting to a final OD600 nm of 0.01.
(§2) Test compounds were prepared in DMSO at a concentration of 10 mg/ml. […] Inocula suspensions were added to the two fold serial dilutions of test compounds to a final density of OD OD600 nm of 0.0005 and incubated stationary at 35° C. for 22 hours, after which the plates were examined visually.

E. coli SPase = E. coli SPase (Escherichia coli, UniProt P00803); assay: Biochemical SPase activity assay (fluorogenic peptide substrate), E. coli enzyme
Sequence of E. coli SPase (P00803 whole entry): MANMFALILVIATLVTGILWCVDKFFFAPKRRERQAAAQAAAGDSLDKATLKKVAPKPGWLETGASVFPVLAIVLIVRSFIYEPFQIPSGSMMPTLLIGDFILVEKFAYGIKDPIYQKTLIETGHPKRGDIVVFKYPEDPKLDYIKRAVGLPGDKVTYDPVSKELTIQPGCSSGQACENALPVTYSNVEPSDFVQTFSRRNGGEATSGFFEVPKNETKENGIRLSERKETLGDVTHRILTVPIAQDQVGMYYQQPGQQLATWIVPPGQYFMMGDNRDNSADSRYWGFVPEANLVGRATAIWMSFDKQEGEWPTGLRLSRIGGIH

[2] = system: Methicillin Resistant Staphylococcus aureus strain USA 300 (NRS384)
Method: as §1, §2

[3] = system: methicillin resistant Staphylococcus aureus (MRSA) strain USA300 (NRS384); conditions: Method B, 35° C., 22 hours
Method: In vitro antimicrobial activity of each compound was determined by measuring minimal inhibitor concentrations (MICs) using the broth micro-dilution technique as approved by the Clinical and Laboratory Standards Institute (CLSI). […] Bacterial inocula were prepared by scraping cells into 1 mL of testing media (cation adjusted Mueller Hinton Broth supplemented with 0.002% v/v Tween-80) and diluting to a final OD600 nm of 0.01.
Test compounds were prepared in DMSO at a concentration of 10 mg/ml. […] Bacterial inocula were added to the two fold serial dilutions of test compounds to a final density of OD OD600 nm of 0.0005 and incubated stationarily at 35° C. for 22 hours, after which the plates were examined visually.

[4] = system: Escherichia coli strain MC4100 IMP-4213, which harbors an LptD mutation; conditions: Method B; E. coli MC4100 IMP-4213 (LptD mutation); 35° C., 22 hours
Procedure, shortened: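 Two-fold serial dilutions of compound inoculated at final OD600 0.0005, incubated static at 35 °C for 22 h, and growth read visually.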

[5] = Method A, MRSA USA 300 (NRS384), 35° C., 22 hours

| SMILES | IC50 (S. aureus SPase) | MIC (μg/mL) E. coli [1] | IC50 (E. coli SPase) | MIC (μg/mL) S. aureus [2, 5] | MIC (μg/mL) S. aureus ([2]; USA 300, 22 h) | MIC (μg/mL) S. aureus [3] | MIC (μg/mL) E. coli [4] |
| --- | --- | --- | --- | --- | --- | --- | --- |
| CCCCc1ccc(-c2ccc(C(=O)N[C@H](CO)C(=O)N[C@H](C)C(=O)NCC(=O)N[C@H](C(=O)N[C@@H](C)C(=O)N[C@@H](CC(N)=O)C(=O)NCB(O)O)C(C)O)cc2)cc1 (stereo partly drawn) [Compound 115] ({Biphenylcarbonyl(4'-Bu)}-[dS][dA]G[Thr(3ξ)]AN-boroGly) | 170 nM | >64 µg/mL | 1000 nM | >64 µg/mL | – | – | – |
| CCCCc1ccc(-c2ccc(C(=O)NCCC(=O)N[C@@H](CCCCN)C(=O)N[C@H](C(=O)N[C@@H](C)C(=O)N[C@@H](CC(N)=O)C(=O)NCB(O)O)C(C)O)cc2)cc1 (stereo partly drawn) [Compound 118] ({Biphenylcarbonyl(4'-Bu)-βAla}-K[Thr(3ξ)]AN-boroGly) | 9.4 nM | 11 µg/mL (≈ 13.8 µM) | 1100 nM | 0.71 µg/mL (≈ 0.891 µM) | – | – | – |
| CCCCCCCCCC(=O)N[C@@H](CC(C)C)C(=O)N[C@H](C(=O)N1CCC[C@@H]1C(=O)N[C@H](C(=O)N[C@@H](C)C(=O)N[C@@H](Cc1ccc(O)cc1)C(=O)NCB(O)O)C(C)O)C(C)O (stereo partly drawn) [Compound 128] (Decanoyl-L[Thr(3ξ)][dP][Thr(3ξ)]AY-boroGly) | 670 nM | >64 µg/mL | 3000 nM | >64 µg/mL | – | – | – |
| CCCCc1ccc(-c2ccc(C(=O)NCCC(=O)N[C@@H](CCCCN)C(=O)N[C@H](C(=O)N[C@@H](C)C(=O)N[C@@H](CC(N)=O)C(=O)N[C@@H](C)B3OC4C[C@@H]5C[C@@H](C5(C)C)[C@]4(C)O3)C(C)O)cc2)cc1 (stereo partly drawn) [Compound 121] ({Biphenylcarbonyl(4'-Bu)-βAla}-K[Thr(3ξ)]AN-X1) | – | 0.5 µg/mL (≈ 0.529 µM) | – | 0.25 µg/mL (≈ 0.265 µM) | – | – | – |
| CCCCCCCCCCCCCC(=O)N[C@H](CO)C(=O)N[C@H](C)C(=O)NCC(=O)N(C)[C@H](C(=O)N[C@@H](C)C(=O)N[C@@H](CC(C)C)C(=O)NC(C)C(=O)C(=O)NC)C(C)O (mixture of isomers) [Compound 110] | 150 nM | >64 µg/mL | – | – | >64 µg/mL | – | – |
| CCCCCCCCCCCCCC(=O)N[C@@H](CC(C)C)C(=O)N[C@H](C(=O)N1CCC[C@@H]1C(=O)N[C@H](C(=O)N[C@@H](C)C(=O)N[C@@H](Cc1ccc(O)cc1)C(=O)NCC=O)C(C)O)C(C)O (stereo partly drawn) [Compound 105] (Myristoyl-L[Thr(3ξ)][dP][Thr(3ξ)]AYG-aldehyde) | – | >64 µg/mL | – | >64 µg/mL | – | – | – |
| CCCCc1ccc(-c2ccc(C(=O)N[C@H](CO)C(=O)N[C@H](C)C(=O)NCC(=O)N(C)[C@@H](CCC(=O)O)C(=O)N[C@@H](C)C(=O)N[C@@H](CC(N)=O)C(=O)NCB(O)O)cc2)cc1 [Compound 119] ({Biphenylcarbonyl(4'-Bu)}-[dS][dA]G[NMeE]AN-boroGly) | 59 nM | >64 µg/mL | 290 nM | >64 µg/mL | – | – | – |
| CCCCc1ccc(-c2ccc(C(=O)N[C@H](CO)C(=O)N[C@H](C)C(=O)N3CCC[C@H]3C(=O)N[C@H](C(=O)N[C@@H](C)C(=O)N[C@@H](CC(N)=O)C(=O)NCB(O)O)C(C)O)cc2)cc1 (stereo partly drawn) [Compound 116] ({Biphenylcarbonyl(4'-Bu)}-[dS][dA]P[Thr(3ξ)]AN-boroGly) | 38 nM | >64 µg/mL | 310 nM | >64 µg/mL | – | – | – |
| CCCCCCc1ccc(C(=O)N[C@H](CO)C(=O)N[C@H](C)C(=O)NCC(=O)N(C)[C@H](C(=O)N[C@@H](C)C(=O)N[C@@H](CC(N)=O)C(=O)NCB(O)O)C(C)O)cc1 (stereo partly drawn) [Compound 124] ({Benzoyl(4-hexyl)}-[dS][dA]G[NMeThr(3ξ)]AN-boroGly) | 83 nM | >64 µg/mL | 810 nM | >64 µg/mL | – | – | – |
| CCCCCCCCCCCCCC(=O)N[C@H](CO)C(=O)N[C@H](C)C(=O)NCC(=O)N(C)[C@H](C(=O)N[C@@H](C)C(=O)N[C@@H](CC(C)C)C(=O)NCB(O)O)C(C)O (stereo partly drawn) [Compound 122] (Myristoyl-[dS][dA]G[NMeThr(3ξ)]AL-boroGly) | 7.6 nM | >64 µg/mL | 1500 nM | 40 µg/mL (≈ 50 µM) | – | – | – |
| CCCCCCCCCCCCCC(=O)N[C@@H](CC(C)C)C(=O)N[C@H](C(=O)N1CCC[C@@H]1C(=O)N[C@H](C(=O)N[C@@H](C)C(=O)N[C@@H](CC(N)=O)C(=O)NC(C)C=O)C(C)O)C(C)O (stereo partly drawn) [Compound 108] (Myristoyl-L[Thr(3ξ)][dP][Thr(3ξ)]AN[ξA]-aldehyde) | 2100 nM | >64 µg/mL | 20000 nM | 64 µg/mL (≈ 72.6 µM) | – | – | – |
| CCCCCCCCCCCCCC(=O)N[C@@H](CC(C)C)C(=O)N[C@H](C(=O)N1CCC[C@@H]1C(=O)N[C@H](C(=O)N[C@@H](C)C(=O)N[C@@H](Cc1ccc(O)cc1)C(=O)NC(C)C(=O)C(=O)NC)C(C)O)C(C)O (mixture of isomers) [Compound 112] | 3400 nM | >64 µg/mL | 31000 nM | >64 µg/mL | – | – | – |
| CCCCCCCCCCCCCC(=O)N[C@@H](CC(C)C)C(=O)N[C@H](C(=O)N1CCC[C@@H]1C(=O)N[C@H](C(=O)N[C@@H](C)C(=O)N[C@@H](CC(N)=O)C(=O)NCC=O)C(C)O)C(C)O (stereo partly drawn) [Compound 103] (Myristoyl-L[Thr(3ξ)][dP][Thr(3ξ)]ANG-aldehyde) | 110 nM | – | 11000 nM | >64 µg/mL | – | – | – |
| CCCCCCCCCC(=O)N[C@@H](CC(C)C)C(=O)N[C@H](C(=O)N1CCC[C@@H]1C(=O)N[C@H](C(=O)N[C@@H](C)C(=O)N[C@@H](Cc1ccc(O)cc1)C(=O)NC(C)C=O)C(C)O)C(C)O (stereo partly drawn) [Compound 109] (Decanoyl-L[Thr(3ξ)][dP][Thr(3ξ)]AY[ξA]-aldehyde) | 4900 nM | >64 µg/mL | – | >64 µg/mL | – | – | – |
| CCCCCCCCCCCCCC(=O)N[C@H](CO)C(=O)N[C@H](C)C(=O)NCC(=O)N(C)[C@H](C(=O)N[C@@H](C)C(=O)N[C@@H](CC(C)C)C(=O)NCC=O)C(C)O (stereo partly drawn) [Compound 104] (Myristoyl-[dS][dA]G[NMeThr(3ξ)]ALG-aldehyde) | 18 nM | – | 8900 nM | 8 µg/mL (≈ 10.2 µM) | – | – | – |
| CCCCc1ccc(-c2ccc(CNCCC[C@H](N)C(=O)N[C@H](C(=O)N[C@@H](C)C(=O)N[C@@H](CCCCN)C(=O)N[C@@H](C)B3OC4C[C@@H]5C[C@@H](C5(C)C)[C@]4(C)O3)[C@@H](C)O)cc2)cc1 (stereo partly drawn) [Compound 274] | 35 nM | – | 1700 nM | – | – | 0.13 µg/mL (≈ 0.151 µM) | 16 µg/mL (≈ 18.6 µM) |
| CCCCc1ccc(-c2ccc(C(=O)N[C@@H](CCCCN)C(=O)N3CCC[C@H]3C(=O)N[C@@H](C)C(=O)N[C@@H](CC(N)=O)C(=O)N[C@@H](C)B3O[C@@H]4C[C@@H]5C[C@@H](C5(C)C)[C@]4(C)O3)cc2)cc1 [Compound 133] ({Biphenylcarbonyl(4'-Bu)}-KPAN-{boroAla((+)-pinanediol)}) | 170 nM | – | 15 nM | – | – | 1.4 µg/mL (≈ 1.61 µM) | 0.79 µg/mL (≈ 0.908 µM) |
| CC(C)C[C@H](NC(=O)[C@H](C)NC(=O)[C@H](CN)NC(=O)[C@H](CN)NC(=O)c1ccc(-c2ccc(Cl)cc2)cc1)C(=O)N[C@@H](C)B(O)O [Compound 176] ({Benzoyl(4-(4-Cl-Ph))}-[Dap][Dap]AL-boroAla) | 1200 nM | – | 56 nM | – | – | 16 µg/mL (≈ 24.2 µM) | 8 µg/mL (≈ 12.1 µM) |
| CCCCc1ccc(-c2ccc(C(=O)N[C@@H](CCN)C(=O)N[C@H](C(=O)N[C@@H](C)C(=O)N[C@@H](CCCCN)C(=O)N[C@@H](C)B3OC4C[C@@H]5C[C@@H](C5(C)C)[C@]4(C)O3)C(C)O)cc2)cc1 (stereo partly drawn) [Compound 148] ({Biphenylcarbonyl(4'-Bu)}-[Dab][Thr(3ξ)]AK-X1) | 140 nM | – | 7.4 nM | – | – | 0.23 µg/mL (≈ 0.267 µM) | 0.4 µg/mL (≈ 0.465 µM) |
| CCCCc1ccc(-c2ccc(C(=O)N[C@@H](CO)C(=O)N[C@H](C(=O)N[C@@H](C)C(=O)N[C@@H](CCCCN)C(=O)N[C@@H](C)B(O)O)[C@@H](C)O)cc2)cc1 [Compound 164] ({Biphenylcarbonyl(4'-Bu)}-STAK-boroAla) | 120 nM | – | 44 nM | – | – | 1.4 µg/mL (≈ 1.96 µM) | 1 µg/mL (≈ 1.4 µM) |
| CCCCc1ccc(-c2ccc(C(=O)N[C@@H](CCCCN)C(=O)N[C@@H](CN)C(=O)N[C@@H](C)C(=O)N[C@@H](CC(C)C)C(=O)N[C@@H](C)B(O)O)cc2)cc1 [Compound 165] ({Biphenylcarbonyl(4'-Bu)}-K[Dap]AL-boroAla) | 410 nM | – | 120 nM | – | – | 0.63 µg/mL (≈ 0.87 µM) | 0.63 µg/mL (≈ 0.87 µM) |
| CC(C)C[C@H](NC(=O)[C@H](C)NC(=O)[C@H](CCN)NC(=O)[C@H](CCN)NC(=O)c1ccc(-c2ccc(Cl)cc2)cc1)C(=O)N[C@@H](C)B1OC2C[C@@H]3C[C@@H](C3(C)C)[C@]2(C)O1 (stereo partly drawn) [Compound 173] ({Benzoyl(4-(4-Cl-Ph))}-[Dab][Dab]AL-X1) | 550 nM | – | 69 nM | – | – | 2 µg/mL (≈ 2.43 µM) | 2 µg/mL (≈ 2.43 µM) |
| CCCCc1ccc(-c2ccc(CNCCC[C@H](NC(C)=O)C(=O)N[C@H](C(=O)N[C@@H](C)C(=O)N[C@@H](CCCCN)C(=O)N[C@@H](C)B3OC4C[C@@H]5C[C@@H](C5(C)C)[C@]4(C)O3)[C@@H](C)O)cc2)cc1 (stereo partly drawn) [Compound 275] | 110 nM | – | 1500 nM | – | – | 1 µg/mL (≈ 1.11 µM) | 32 µg/mL (≈ 35.5 µM) |
